Laboratory results from BindingDB's records for doi:10.1016/j.chembiol.2005.02.004 (Purdue University, 2005).
Numbered stars: 1 amine (or outer) side, 2 acyl side, 3 side chain; on linkers, the order of the positions; unused ones are H or OH. Bridge positions count the residues as written; N and C are the ends. Square brackets hold non-standard residues; d marks the D form. Peptide text beside a SMILES is read from it. I, II: the chains in the order shown. * marks the point of attachment. C16 diacid = O=C(O)CCCCCCCCCCCCCCC(=O)*; X1 = NC(O)C[C@H](N[*:1])C(=O)[*:2]

The molecules below were run against T1, Capsid scaffolding protein (Human herpesvirus 1 (strain 17), UniProt P10210) (assay: Zhang-Poorman Assay). Details: pH 5.52.
T1 sequence (P10210 whole entry): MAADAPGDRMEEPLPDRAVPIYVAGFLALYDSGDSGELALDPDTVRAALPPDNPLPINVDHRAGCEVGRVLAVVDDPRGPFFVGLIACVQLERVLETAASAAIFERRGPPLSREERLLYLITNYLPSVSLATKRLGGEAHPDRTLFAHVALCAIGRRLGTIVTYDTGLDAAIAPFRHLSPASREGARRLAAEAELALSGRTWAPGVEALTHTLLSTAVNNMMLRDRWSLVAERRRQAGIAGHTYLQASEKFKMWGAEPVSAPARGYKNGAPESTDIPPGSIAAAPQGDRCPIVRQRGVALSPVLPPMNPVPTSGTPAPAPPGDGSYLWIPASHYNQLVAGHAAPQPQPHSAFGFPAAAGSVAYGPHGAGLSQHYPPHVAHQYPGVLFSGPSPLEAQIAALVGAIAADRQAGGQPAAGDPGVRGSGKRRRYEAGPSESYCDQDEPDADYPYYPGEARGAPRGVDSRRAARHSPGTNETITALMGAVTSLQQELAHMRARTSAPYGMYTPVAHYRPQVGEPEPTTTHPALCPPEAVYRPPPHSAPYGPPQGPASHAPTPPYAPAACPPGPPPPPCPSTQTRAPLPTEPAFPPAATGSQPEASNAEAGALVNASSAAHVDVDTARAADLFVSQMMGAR

`COc1ccc(CCNC(=O)[C@@H](CC(C)C)NC(=O)[C@H](NC(=O)CCCCCCCCCCCCCCC(=O)N[C@H](CC(N)=O)C(=O)N[C@@H](Cc2ccccc2)C(=O)O)C(C)O)cc1` (stereo partly specified) [Pepstatin analog, 7] and `CC(C)C[C@@H](NC(=O)[C@H](NC(=O)CCCCCCCCCCCCCCC(=O)N[C@H](CC(N)=O)C(=O)N[C@@H](Cc1ccccc1)C(=O)O)C(C)O)C(=O)NCCc1ccc(N)cc1` (stereo partly specified) [Pepstatin analog, 10] are within 1.5-fold of each other in IC50: 2700 nM for the first, 2500 nM for the second.

Going from `CC(C)C[C@@H](NC(=O)[C@H](NC(=O)CCCCCCCCCCCCCCC(=O)N[C@H](CC(N)=O)C(=O)N[C@@H](Cc1ccccc1)C(=O)O)C(C)O)C(=O)NCCc1ccc(Oc2ccc(O)cc2)cc1` (stereo partly specified) [Pepstatin analog, 12] to `CC(C)C[C@@H](NC(=O)[C@H](NC(=O)CCCCCCCCCCCCCCC(=O)N[C@H](CC(N)=O)C(=O)N[C@@H](Cc1ccccc1)C(=O)O)C(C)O)C(=O)NCCc1ccc(Oc2ccccc2)cc1` (stereo partly specified) [Pepstatin analog, 11], the IC50 rises from 360 nM to 730 nM (2-fold).

`COc1ccc(CCNC(=O)[C@@H](CC(C)C)NC(=O)[C@H](NC(=O)CCCCCCCCCCCCCCC(=O)N[C@H](CC(N)=O)C(=O)N[C@@H](Cc2ccccc2)C(=O)O)C(C)O)cc1OC` (stereo partly specified) [Pepstatin analog, 9] and `CC(C)C[C@@H](NC(=O)[C@H](NC(=O)CCCCCCCCCCCCCCC(=O)N[C@H](CC(N)=O)C(=O)N[C@@H](Cc1ccccc1)C(=O)O)C(C)O)C(=O)NCCc1ccc(O)c(O)c1` (stereo partly specified) [Pepstatin analog, 8] are within 1.5-fold of each other in IC50: 4300 nM for the first, 2900 nM for the second.

Work on `CC(C)C[C@@H](NC(=O)[C@H](NC(=O)CCCCCCCCCCCCCCC(=O)N[C@H](CC(N)=O)C(=O)N[C@@H](Cc1ccccc1)C(=O)O)C(C)O)C(=O)NCCc1ccc(O)cc1` (stereo partly specified) [Pepstatin analog, 6] yielded an IC50 of 5800 nM.

`COc1ccc(CCNC(=O)[C@@H](CC(C)C)NC(=O)[C@H](NC(=O)CCCCCCCCCCCCCCC(=O)N[C@H](CC(N)=O)C(=O)N[C@@H](Cc2ccccc2)C(=O)O)C(C)O)cc1` (stereo partly specified) [Pepstatin analog, 7] and `CC(C)C[C@@H](NC(=O)[C@H](NC(=O)CCCCCCCCCCCCCCC(=O)N[C@H](CC(N)=O)C(=O)N[C@@H](Cc1ccccc1)C(=O)O)C(C)O)C(=O)NCCc1ccc(N)cc1` (stereo partly specified) [Pepstatin analog, 10] are within 1.5-fold of each other in Ki: 720 nM for the first, 650 nM for the second.

Going from `CC(C)C[C@@H](NC(=O)[C@H](NC(=O)CCCCCCCCCCCCCCC(=O)N[C@H](CC(N)=O)C(=O)N[C@@H](Cc1ccccc1)C(=O)O)C(C)O)C(=O)NCCc1ccc(Oc2ccc(O)cc2)cc1` (stereo partly specified) [Pepstatin analog, 12] to `CC(C)C[C@@H](NC(=O)[C@H](NC(=O)CCCCCCCCCCCCCCC(=O)N[C@H](CC(N)=O)C(=O)N[C@@H](Cc1ccccc1)C(=O)O)C(C)O)C(=O)NCCc1ccc(Oc2ccccc2)cc1` (stereo partly specified) [Pepstatin analog, 11], the Ki rises from 96 nM to 175 nM (1.8-fold).

In the case of `CC(C)C[C@@H](NC(=O)[C@H](NC(=O)CCCCCCCCCCCCCCC(=O)N[C@H](CC(N)=O)C(=O)N[C@@H](Cc1ccccc1)C(=O)O)C(C)O)C(=O)NCCc1ccc(O)c(O)c1` (stereo partly specified) [Pepstatin analog, 8], the Ki is reported as 600 nM.

These molecules were tested against T1, Capsid scaffolding protein (assay: Competitive Assay). Details: pH 5.52.
Source text: The competitive assay requires two inhibitors to act by a purely competitive mechanism, whereas the binding site of on the inhibitors has been established.

`CC(C)C[C@H](NC(=O)[C@@H](NC(=O)CCCCCCCCCCCCCCC(=O)N[C@H](CC(N)=O)C(=O)N[C@@H](Cc1ccccc1)C(=O)O)C(C)O)C(=O)NCCc1ccccc1` (stereo partly specified) [Pepstatin analog, 3] and `CC(C)C[C@@H](NC(=O)[C@H](NC(=O)CCCCCCCCCCCCCCC(=O)N[C@H](CC(N)=O)C(=O)N[C@@H](Cc1ccccc1)C(=O)O)C(C)O)C(=O)NCCc1cccc(O)c1` (stereo partly specified) [Pepstatin analog, 4] are within 1.5-fold of each other in IC50: 5800 nM for the first, 4400 nM for the second.

`COc1cccc(CCNC(=O)[C@@H](CC(C)C)NC(=O)[C@H](NC(=O)CCCCCCCCCCCCCCC(=O)N[C@H](CC(N)=O)C(=O)N[C@@H](Cc2ccccc2)C(=O)O)C(C)O)c1` (stereo partly specified) [Pepstatin analog, 5] and `CC(C)C[C@H](NC(=O)[C@@H](NC(=O)CCCCCCCCCCCCCCC(=O)N[C@H](CC(N)=O)C(=O)N[C@H](Cc1ccccc1)C(=O)O)C(C)O)C(=O)N[C@@H](Cc1ccccc1)C(N)=O` (stereo partly specified) [Pepstatin analog, 2] are within 1.5-fold of each other in IC50: 4900 nM for the first, 5900 nM for the second.

Work on `CC[C@H](C)[C@H](NC(=O)[C@H](CCC(N)=O)NC(=O)[C@@H]1CCCN1C(=O)CCCCCCCCCCCCCCC(=O)N[C@@H](CO)C(=O)N[C@H](C(=O)N[C@H](C(=O)N[C@@H](CC(N)O)C(=O)N[C@@H](Cc1ccccc1)C(=O)O)C(C)C)[C@@H](C)O)C(=O)N[C@H](C(=O)N[C@@H](CC(C)C)C(=O)N[C@@H](Cc1c[nH]c2ccccc12)C(=O)O)[C@@H](C)O` (stereo partly specified) [Pepstatin analog, 1] (I: PQITLW-OH / II: STV[X1]F-OH; linker I:N-II:N via C16 diacid) yielded an IC50 of 350 nM.

`CC(C)C[C@@H](NC(=O)[C@H](NC(=O)CCCCCCCCCCCCCCC(=O)N[C@H](CC(N)=O)C(=O)N[C@@H](Cc1ccccc1)C(=O)O)C(C)O)C(=O)NCCc1cccc(O)c1` (stereo partly specified) [Pepstatin analog, 4] and `COc1cccc(CCNC(=O)[C@@H](CC(C)C)NC(=O)[C@H](NC(=O)CCCCCCCCCCCCCCC(=O)N[C@H](CC(N)=O)C(=O)N[C@@H](Cc2ccccc2)C(=O)O)C(C)O)c1` (stereo partly specified) [Pepstatin analog, 5] are within 1.5-fold of each other in Ki: 1130 nM for the first, 1290 nM for the second.

First: CC(C)C[C@H](NC(=O)[C@@H](NC(=O)CCCCCCCCCCCCCCC(=O)N[C@H](CC(N)=O)C(=O)N[C@H](Cc1ccccc1)C(=O)O)C(C)O)C(=O)N[C@@H](Cc1ccccc1)C(N)=O (stereo partly specified) [Pepstatin analog, 2]
Second: CC[C@H](C)[C@H](NC(=O)[C@H](CCC(N)=O)NC(=O)[C@@H]1CCCN1C(=O)CCCCCCCCCCCCCCC(=O)N[C@@H](CO)C(=O)N[C@H](C(=O)N[C@H](C(=O)N[C@@H](CC(N)O)C(=O)N[C@@H](Cc1ccccc1)C(=O)O)C(C)C)[C@@H](C)O)C(=O)N[C@H](C(=O)N[C@@H](CC(C)C)C(=O)N[C@@H](Cc1c[nH]c2ccccc12)C(=O)O)[C@@H](C)O (stereo partly specified) [Pepstatin analog, 1] (I: PQITLW-OH / II: STV[X1]F-OH; linker I:N-II:N via C16 diacid)
The Ki of the first is 14-fold higher: 3000 nM for the first, 220 nM for the second.
